Here are results for 13 compounds from patent US20160175306A1, “COMBINATION OF A IMIDAZOPYRIDAZINE DERIVATIVE AND A MITOTIC AGENT FOR THE TREATMENT OF CANCER” (BAYER PHARMA AKTIENGESELLSCHAFT, priority 2013, published 2016).

For orientation: IC50 means the concentration that inhibits the measured activity by half.

The subject of one series is rat hepatocytes. The experiment in a line: In vitro metabolic stability in rat hepatocytes. The series is classed as in vitro ADME. As to conditions: 1 μM test compound, calculated from half-life. On the procedure: Investigation of In Vitro Metabolic Stability in Rat Hepatocytes (Including Calculation of Hepatic In Vivo Blood Clearance (CL))
Hepatocytes from Han Wistar rats were isolated via a 2-step perfusion method. After perfusion, the liver was carefully removed from the rat: the liver capsule was opened and the hepatocytes were gently shaken out into a Petri dish with ice-cold WME. The resulting cell suspension was filtered through sterile gaze in 50 ml falcon tubes and centrifuged at 50×g for 3 min at room temperature.
The cell pellet was resuspended in 30 ml WME and centrifuged through a Percoll® gradient for 2 times at 100×g. The hepatocytes were washed again with Williams' medium E (WME) and resuspended in medium containing 5% FCS. Cell viability was determined by trypan blue exclusion.
For the metabolic stability assay liver cells were distributed in WME containing 5% FCS to glass vials at a density of 1.0×10^6 vital cells/m. The test compound was added to a final concentration of 1 μM. During incubation, the hepatocyte suspensions were continuously shaken and aliquots were taken at 2, 8, 16, 30, 45 and 90 min, to which equal volumes of cold methanol were immediately added. Samples were frozen at −20° C. over night, after subsequently centrifuged for 15 minutes at 3000 rpm and the supernatant was analyzed with an Agilent 1200 HPLC-system with LCMS/MS detection.
The half-life of a test compound was determined from the concentration-time plot. From the half-life the intrinsic clearances were calculated. Together with the additional parameters liver blood flow, amount of liver cells in vivo and in vitro. The hepatic in vivo blood clearance (CL) and the maximal oral bioavailability (Fmax) was calculated. The following parameter values were used: Liver blood flow—4.2 L/h/kg rat; specific liver weight—32 g/kg rat body weight; liver cells in vivo—1.1×10^8 cells/g liver, liver cells in vitro—0.5×10^6/ml.

A further series has as its target T1, human kinase Mps-1 (Homo sapiens, UniProt P33981).
T1 construct: N-terminally GST-tagged human full length recombinant Mps-1 kinase; purchased Invitrogen, Karslruhe, Germany PV4071
T1 sequence (P33981 1-857): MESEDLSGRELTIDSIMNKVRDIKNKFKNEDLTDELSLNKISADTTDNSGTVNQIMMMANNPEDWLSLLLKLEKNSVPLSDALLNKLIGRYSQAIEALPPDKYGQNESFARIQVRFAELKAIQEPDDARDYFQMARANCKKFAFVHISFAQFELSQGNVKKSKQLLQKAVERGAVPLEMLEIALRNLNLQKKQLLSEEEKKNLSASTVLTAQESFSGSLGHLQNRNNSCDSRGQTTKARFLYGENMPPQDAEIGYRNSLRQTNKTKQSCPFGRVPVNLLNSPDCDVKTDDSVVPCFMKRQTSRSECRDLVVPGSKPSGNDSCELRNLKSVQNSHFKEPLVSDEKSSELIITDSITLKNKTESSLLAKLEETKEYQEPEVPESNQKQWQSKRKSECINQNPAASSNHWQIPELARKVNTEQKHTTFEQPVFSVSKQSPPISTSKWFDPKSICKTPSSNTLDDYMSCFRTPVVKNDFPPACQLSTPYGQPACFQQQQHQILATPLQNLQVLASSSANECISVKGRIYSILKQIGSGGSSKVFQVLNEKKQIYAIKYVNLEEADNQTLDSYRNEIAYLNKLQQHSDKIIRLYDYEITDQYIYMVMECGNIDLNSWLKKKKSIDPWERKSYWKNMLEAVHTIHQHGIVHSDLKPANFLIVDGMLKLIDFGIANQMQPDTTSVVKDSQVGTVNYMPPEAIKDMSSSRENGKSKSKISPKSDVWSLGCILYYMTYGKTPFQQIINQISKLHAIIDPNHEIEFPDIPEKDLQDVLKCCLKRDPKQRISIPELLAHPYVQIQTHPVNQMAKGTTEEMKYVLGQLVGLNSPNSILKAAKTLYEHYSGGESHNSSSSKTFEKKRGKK
The series can be described thus: Mps-1 Kinase Assay (TR-FRET). The series is classed as biochemical. The conditions noted are these: 10 μM ATP. How it is done:
The human kinase Mps-1 phosphorylates a biotinylated substrate peptide. Detection of the phosphorylated product is achieved by time-resolved fluorescence resonance energy transfer (TR-FRET) from Europium-labelled anti-phospho-Serine/Threonine antibody as donor to streptavidin Labelled with cross-linked allophycocyanin (SA-XLent) as acceptor. Compounds are tested for their inhibition of the kinase activity.
N-terminally GST-tagged human full length recombinant Mps-1 kinase (purchased from Invitrogen, Karslruhe, Germany, cat. no PV4071) was used. As substrate for the kinase reaction a biotinylated peptide of the amino-acid sequence […] (C-terminus in amide form, purchased from Biosynthan GmbH, Berlin) was used.
The concentration of Mps-1 in the assay was adjusted to the activity of the enzyme lot and was chosen appropriate to have the assay in the linear range, typical enzyme concentrations were in the range of about 1 nM (final conc. in the 5 μl assay volume).
The resulting mixture was incubated 1 h at 22° C. to allow the binding of the phosphorylated peptide to the anti-phospho(Ser/Thr)-Europium-antibody. Subsequently the amount of phosphorylated substrate was evaluated by measurement of the resonance energy transfer from the Europium-labelled anti-phospho(Ser/Thr) antibody to the Streptavidin-XLent.
A general note: In TR-FRET formats the signal depends on donor and acceptor labels being close together.

In the case of `Cc1cc(-c2cnc3c(NCCC(F)(F)F)cc(C(O)c4cc(F)ccc4F)nn23)ccc1C(=O)NC1CC1` (racemic) [Compound A11, (RS)—N-Cyclopropyl-4-{6-[(2,5-difluorophenyl)(hydroxy)methyl]-8-[(3,3,3-trifluoropropyl)amino]imidazo[1,2-b]pyridazin-3-yl}-2-methylbenzamide], the “Fmax (maximal oral bioavailability)” value in the series with rat hepatocytes is recorded as 45%. The compound also came in with an IC50 at human kinase Mps-1 of 0.3 nM.
The like results for `COc1ccc(C(F)(F)c2cc(NCCC(F)(F)F)c3ncc(-c4ccc(C(=O)NC5CC5)c(C)c4)n3n2)cc1F` [Compound A2, N-Cyclopropyl-4-{6-[difluoro(3-fluoro-4-methoxyphenyl)methyl]-8-[(3,3,3-trifluoropropyl)amino]imidazo[1,2-b]pyridazin-3-yl}-2-methylbenzamide] were, in that order, 64% and 0.6 nM.
As to `COc1cccc(C(=O)c2cc(NCCC(F)(F)F)c3ncc(-c4ccc(C(=O)NC5CC5)c(C)c4)n3n2)c1` [Compound A7, N-Cyclopropyl-4-{6-(3-methoxybenzoyl)-8-[(3,3,3-trifluoropropyl)amino]imidazo[1,2-b]pyridazin-3-yl}-2-methylbenzamide], the “Fmax (maximal oral bioavailability)” value with rat hepatocytes is on record as 26%. The same compound returned a half-inhibitory concentration (IC50) at human kinase Mps-1 of 0.5 nM.
As to `C=C(c1cccc(OC)c1)c1cc(NCCC(F)(F)F)c2ncc(-c3ccc(C(=O)NC4CC4)c(C)c3)n2n1` [Compound A8, N-Cyclopropyl-4-{6-[1-(3-methoxyphenyl)vinyl]-8-[(3,3,3-trifluoropropyl)amino]imidazo[1,2-b]pyridazin-3-yl}-2-methylbenzamide], the “Fmax (maximal oral bioavailability)” value with rat hepatocytes is given as 57%. Also, the IC50 on human kinase Mps-1 was 0.8 nM.
For the compound `COc1ccc(C(=O)c2cc(NCCC(F)(F)F)c3ncc(-c4ccc(C(=O)NC5CC5)c(C)c4)n3n2)cc1` [Compound A9, N-Cyclopropyl-4-{6-(4-methoxybenzoyl)-8-[(3,3,3-trifluoropropyl)amino]imidazo[1,2-b]pyridazin-3-yl}-2-methylbenzamide], the “Fmax (maximal oral bioavailability)” value with rat hepatocytes is 71%. For the same compound, on human kinase Mps-1, the IC50 is 1.2 nM.
For `C=C(c1ccc(OC)cc1)c1cc(NCCC(F)(F)F)c2ncc(-c3ccc(C(=O)NC4CC4)c(C)c3)n2n1` [Compound A10, N-Cyclopropyl-4-{6-[1-(4-methoxyphenyl)vinyl]-8-[(3,3,3-trifluoropropyl)amino]imidazo[1,2-b]pyridazin-3-yl}-2-methylbenzamide], the “Fmax (maximal oral bioavailability)” value with rat hepatocytes was 48%. The IC50 on human kinase Mps-1 was 0.5 nM.
Consider `Cc1cc(-c2cnc3c(NCCC(F)(F)F)cc(C(=O)c4cc(F)ccc4F)nn23)ccc1C(=O)NC1CC1` [Compound A12, N-Cyclopropyl-4-{6-(2,5-difluorobenzoyl)-8-[(3,3,3-trifluoropropyl)amino]imidazo[1,2-b]pyridazin-3-yl}-2-methylbenzamide], for which the “Fmax (maximal oral bioavailability)” value with rat hepatocytes is listed as 67%. This compound also returned an IC50 against human kinase Mps-1 of 0.6 nM.
The like results for `Cc1cc(-c2cnc3c(NCCC(F)(F)F)cc(C(=O)c4cccc(F)c4F)nn23)ccc1C(=O)NC1CC1` [Compound A14, N-Cyclopropyl-4-{6-(2,3-difluorobenzoyl)-8-[(3,3,3-trifluoropropyl)amino]imidazo[1,2-b]pyridazin-3-yl}-2-methylbenzamide] were, in that order, 51% and 0.6 nM.
On to `C=C(c1cc(NCCC(F)(F)F)c2ncc(-c3ccc(C(=O)NC4CC4)c(C)c3)n2n1)c1cccc(F)c1F` [Compound A15, N-Cyclopropyl-4-{6-[1-(2,3-difluorophenyl)vinyl]-8-[(3,3,3-trifluoropropyl)amino]imidazo[1,2-b]pyridazin-3-yl}-2-methylbenzamide], for which the “Fmax (maximal oral bioavailability)” value with rat hepatocytes was 53%. In addition, the IC50 on human kinase Mps-1 was determined as 0.4 nM.
`Cc1cc(-c2cnc3c(NCCC(F)(F)F)cc(C(F)(F)c4cccc(F)c4F)nn23)ccc1C(=O)NC1CC1` [Compound A18, N-Cyclopropyl-4-{6-[(2,3-difluorophenyl)(difluoro)methyl]-8-[(3,3,3-trifluoropropyl)amino]imidazo[1,2-b]pyridazin-3-yl}-2-methylbenzamide]: the “Fmax (maximal oral bioavailability)” value in the series on rat hepatocytes is 76%. The compound further yielded an IC50 on human kinase Mps-1 of 1.5 nM.
Take `C=C(c1cc(NCCC(F)(F)F)c2ncc(-c3ccc(C(=O)NC4CC4)c(C)c3)n2n1)c1cc(F)ccc1O` [Compound A22, N-cyclopropyl-4-{6-[1-(5-fluoro-2-hydroxyphenyl)ethenyl]-8-[(3,3,3-trifluoropropyl)amino]imidazo[1,2-b]pyridazin-3-yl}-2-methylbenzamide]: the “Fmax (maximal oral bioavailability)” value with rat hepatocytes is given as 28%. For the same compound, 0.4 nM corresponded to half-maximal inhibition on human kinase Mps-1 (IC50).
With `C=C(c1cccc(F)c1)c1cc(NCCC(F)(F)F)c2ncc(-c3ccc(C(=O)NC4CC4)c(C)c3)n2n1` [Compound A24, N-cyclopropyl-4-{6-[1-(3-fluorophenyl)ethenyl]-8-[(3,3,3-trifluoropropyl)amino]imidazo[1,2-b]pyridazin-3-yl}-2-methylbenzamide], the “Fmax (maximal oral bioavailability)” value with rat hepatocytes is reported as 48%. This compound also had an IC50 against human kinase Mps-1 of 0.3 nM.
Consider `Cc1cc(-c2cnc3c(NCCC(F)(F)F)cc(C4(c5cccc(F)c5)CC4)nn23)ccc1C(=O)NC1CC1` [Compound A25, N-cyclopropyl-4-{6-[1-(3-fluorophenyl)cyclopropyl]-8-[(3,3,3-trifluoropropyl)amino]imidazo[1,2-b]pyridazin-3-yl}-2-methylbenzamide], for which the “Fmax (maximal oral bioavailability)” value with rat hepatocytes is reported as 52%. For the same compound, half-maximal inhibition against human kinase Mps-1 (IC50) required 0.9 nM.
